Results taken from PubChem BioAssay AID1963875 (Molecular Pharmacology Branch, DTP, NCI, 2024).

Tested on: KRAS-mutant PDC complex spheroid viability
Test: Anticancer human tumor 186277-243-T-J2-PDC patient-derived colon adenocarcinoma cell line growth inhibition [KRAS2]
Conditions: for IC50: curve of first compound; for viability, T/C: stronger effect = lower value
How it was run: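 Combination screen of spheroid viability in tumor-cell co-cultures with endothelial (HUVEC) and mesenchymal stem cell stroma. Each agent was tested in half-log dilutions, topping at clinical Cmax or at 10 microM without a known Cmax.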

[1] = second compound 0.1 µM, first compound 0.0316 µM
[2] = second compound 0.1 µM, first compound 0.1 µM
[3] = second compound 0.1 µM, first compound 0.316 µM
[4] = second compound 0.1 µM, first compound 1 µM
[5] = second compound 0.1 µM, first compound 3.16 µM
[6] = second compound 0.1 µM, first compound 10 µM
[7] = second compound 0.316 µM, first compound 0.0316 µM
[8] = second compound 0.316 µM, first compound 0.1 µM
[9] = second compound 0.316 µM, first compound 0.316 µM
[10] = second compound 0.316 µM, first compound 1 µM
[11] = second compound 0.316 µM, first compound 3.16 µM
[12] = second compound 0.316 µM, first compound 10 µM
[13] = second compound 1 µM, first compound 0.0316 µM
[14] = second compound 1 µM, first compound 0.1 µM
[15] = second compound 1 µM, first compound 0.316 µM
[16] = second compound 1 µM, first compound 1 µM
[17] = second compound 1 µM, first compound 3.16 µM
[18] = second compound 1 µM, first compound 10 µM
[19] = second compound 3.16 µM, first compound 0.0316 µM
[20] = second compound 3.16 µM, first compound 0.1 µM
[21] = second compound 3.16 µM, first compound 0.316 µM
[22] = second compound 3.16 µM, first compound 1 µM
[23] = second compound 3.16 µM, first compound 3.16 µM
[24] = second compound 3.16 µM, first compound 10 µM
[25] = second compound 10 µM, first compound 0.0316 µM
[26] = second compound 10 µM, first compound 0.1 µM
[27] = second compound 10 µM, first compound 0.316 µM
[28] = second compound 10 µM, first compound 1 µM
[29] = second compound 10 µM, first compound 3.16 µM
[30] = second compound 10 µM, first compound 10 µM
[31] = second compound 0.1 µM, first compound 0.01 µM
[32] = second compound 0.316 µM, first compound 0.01 µM
[33] = second compound 1 µM, first compound 0.01 µM
[34] = second compound 3.16 µM, first compound 0.01 µM
[35] = second compound 10 µM, first compound 0.01 µM
[36] = second compound 0.1 µM, first compound 0.00316 µM
[37] = second compound 0.316 µM, first compound 0.00316 µM
[38] = second compound 1 µM, first compound 0.00316 µM
[39] = second compound 3.16 µM, first compound 0.00316 µM
[40] = second compound 10 µM, first compound 0.00316 µM
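Throughout, for viability, T/C: viability read after seven days of compound exposure; 100% = DMSO vehicle-treated spheroids so lower means less viable.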

Row | Compound | IC50 (second compound 0.1 µM) | IC50 (second compound 0.316 µM) | IC50 (second compound 1 µM) | IC50 (second compound 3.16 µM) | IC50 (second compound 10 µM) | viability, T/C [1] | viability, T/C [2] | viability, T/C [3] | viability, T/C [4] | viability, T/C [7] | viability, T/C [8] | viability, T/C [9] | viability, T/C [10] | viability, T/C [13] | viability, T/C [14] | viability, T/C [15] | viability, T/C [19] | viability, T/C [20] | viability, T/C [25] | viability, T/C [26] | further results
1 | CC(C)NCC(C(=O)N1CCN(c2ncnc3c2C(C)CC3O)CC1)c1ccc(Cl)cc1 (stereo not given) + CNCc1ccccc1-c1csc(C(C)Nc2nc(C)nc3cc(OC)c(OC)cc23)c1 | 585 nM | 469 nM | 298 nM | < 31.6 nM | < 31.6 nM | 111% | 106% | 61.2% | 37.8% | 121% | 96.6% | 60.3% | 29.4% | 109% | 92.4% | 44.9% | 0.41% | 9.82% | 0.14% | 0.12% | viability, T/C [5]: 24.1%; viability, T/C [6]: 11.2%; viability, T/C [11]: 19.6%; viability, T/C [12]: 10.6%; viability, T/C [16]: 24.1%; viability, T/C [17]: 13.3%; viability, T/C [18]: 8.81%; viability, T/C [21]: 0.48%; viability, T/C [22]: 1.02%; viability, T/C [23]: 0.58%; viability, T/C [24]: 0.47%; viability, T/C [27]: 0.12%; viability, T/C [28]: 0.12%; viability, T/C [29]: 0.13%; viability, T/C [30]: 0.2%
2 | CC1COCCN1c1cc(-c2ccnn2C)c2ccnc(-c3ccn[nH]3)c2n1 (stereo not given) + CNCc1ccccc1-c1csc(C(C)Nc2nc(C)nc3cc(OC)c(OC)cc23)c1 | 20 nM | 21.2 nM | 19.6 nM | < 10 nM | < 10 nM | 18.4% | 5.46% | 3.99% | 3.43% | 24.2% | 8.14% | 3.97% | 3.29% | 15.5% | 4.99% | 3.97% | 1.99% | 0.3% | 0.1% | 0.09% | viability, T/C [31]: 97.7%; viability, T/C [5]: 4.08%; viability, T/C [32]: 98.4%; viability, T/C [11]: 4.28%; viability, T/C [33]: 98.9%; viability, T/C [16]: 3.82%; viability, T/C [17]: 4.51%; viability, T/C [34]: 23.7%; viability, T/C [21]: 0.17%; viability, T/C [22]: 0.22%; viability, T/C [23]: 0.31%; viability, T/C [35]: 0.13%; viability, T/C [27]: 0.09%; viability, T/C [28]: 0.1%; viability, T/C [29]: 0.15%
3 | CCN1CCN(Cc2ccc(Nc3ncc(F)c(-c4cc(F)c5nc(C)n(C(C)C)c5c4)n3)nc2)CC1 + CNCc1ccccc1-c1csc(C(C)Nc2nc(C)nc3cc(OC)c(OC)cc23)c1 | > 1000 nM | 970 nM | 687 nM | 115 nM | < 3.16 nM | 93% | 117% | 171% | 72.5% | 106% | 144% | 144% | 48.3% | 96.2% | 132% | 119% | 118% | 56% | 0.19% | 0.15% | viability, T/C [36]: 97.5%; viability, T/C [31]: 86.7%; viability, T/C [37]: 87%; viability, T/C [32]: 91.3%; viability, T/C [38]: 90%; viability, T/C [33]: 85.5%; viability, T/C [16]: 23.6%; viability, T/C [39]: 80.7%; viability, T/C [34]: 85.4%; viability, T/C [21]: 14%; viability, T/C [22]: 0.14%; viability, T/C [40]: 0.18%; viability, T/C [35]: 0.37%; viability, T/C [27]: 0.41%; viability, T/C [28]: 0.15%
4 | CCNC(=O)CC1N=C(c2ccc(Cl)cc2)c2cc(OC)ccc2-n2c(C)nnc21 (stereo not given) + CNCc1ccccc1-c1csc(C(C)Nc2nc(C)nc3cc(OC)c(OC)cc23)c1 | > 10000 nM | > 10000 nM | 5550 nM | 379 nM | < 31.6 nM | 106% | 110% | 123% | 149% | 106% | 111% | 138% | 127% | 98.9% | 112% | 146% | 98.6% | 108% | 0.22% | 0.22% | viability, T/C [5]: 111%; viability, T/C [6]: 70.6%; viability, T/C [11]: 84.9%; viability, T/C [12]: 58.1%; viability, T/C [16]: 106%; viability, T/C [17]: 62.3%; viability, T/C [18]: 37.6%; viability, T/C [21]: 59.2%; viability, T/C [22]: 1.92%; viability, T/C [23]: 0.58%; viability, T/C [24]: 0.76%; viability, T/C [27]: 0.17%; viability, T/C [28]: 0.12%; viability, T/C [29]: 0.11%; viability, T/C [30]: 0.34%
5 | Cn1nccc1Nc1nccc(-c2cc3c(s2)C(C)(C)N(CCN2CCOCC2)C3=O)n1 + CNCc1ccccc1-c1csc(C(C)Nc2nc(C)nc3cc(OC)c(OC)cc23)c1 | 293 nM | 304 nM | 205 nM | 91.7 nM | < 31.6 nM | 99.2% | 98.3% | 46.1% | 13.5% | 94.4% | 97.3% | 48.2% | 9.73% | 92% | 105% | 20.6% | 81.7% | 47.4% | 0.17% | 0.15% | viability, T/C [5]: 7.74%; viability, T/C [6]: 6.21%; viability, T/C [11]: 4.43%; viability, T/C [12]: 7.35%; viability, T/C [16]: 4.12%; viability, T/C [17]: 1.64%; viability, T/C [18]: 2.61%; viability, T/C [21]: 1.6%; viability, T/C [22]: 1.86%; viability, T/C [23]: 0.22%; viability, T/C [24]: 0.1%; viability, T/C [27]: 0.1%; viability, T/C [28]: 0.09%; viability, T/C [29]: 0.09%; viability, T/C [30]: 0.16%
6 | Cn1ncnc1[C@H]1c2n[nH]c(=O)c3cc(F)cc(c23)N[C@@H]1c1ccc(F)cc1 + CNCc1ccccc1-c1csc(C(C)Nc2nc(C)nc3cc(OC)c(OC)cc23)c1 | > 100 nM | > 100 nM | > 100 nM | < 0.316 nM | < 0.316 nM | 83.8% | 68.9% |  |  | 76.4% | 68.7% |  |  | 70.4% | 59.5% |  | 14.5% | 10.9% | 0.13% | 0.21% | viability, T/C (second compound 0.1 µM, first compound 0.000316 µM): 113%; viability, T/C (second compound 0.1 µM, first compound 0.001 µM): 109%; viability, T/C [36]: 109%; viability, T/C [31]: 101%; viability, T/C (second compound 0.316 µM, first compound 0.000316 µM): 117%; viability, T/C (second compound 0.316 µM, first compound 0.001 µM): 106%; viability, T/C [37]: 115%; viability, T/C [32]: 89.3%; viability, T/C (second compound 1 µM, first compound 0.000316 µM): 112%; viability, T/C (second compound 1 µM, first compound 0.001 µM): 110%; viability, T/C [38]: 97.9%; viability, T/C [33]: 86%; viability, T/C (second compound 3.16 µM, first compound 0.000316 µM): 25.5%; viability, T/C (second compound 3.16 µM, first compound 0.001 µM): 0.4%; viability, T/C [39]: 28.8%; viability, T/C [34]: 12.7%; viability, T/C (second compound 10 µM, first compound 0.000316 µM): 0.14%; viability, T/C (second compound 10 µM, first compound 0.001 µM): 0.14%; viability, T/C [40]: 0.14%; viability, T/C [35]: 0.13%
